Measured values: US20060263802A1 (priority 2003, published 2006)

Legend:
Type in all cases: binding
[1] = tested on: human monoclonal antibody CRJA
[2] = tested on: human monoclonal antibody CRJA; remark: listed apart in the source
[3] = tested on: human monoclonal antibody CRJB
[4] = tested on: human monoclonal antibody CR57
[5] = tested on: human monoclonal antibody CR57; remark: listed apart in the source
[6] = tested on: human monoclonal antibody CRJB; remark: listed apart in the source

| Sequence | Binding of CRJA to linear peptide (PEPSCAN-ELISA signal) [1] | Binding of CRJA (10 μg/ml) to looped/cyclic peptide (PEPSCAN-ELISA) [2] | Binding of CRJB to linear peptide (PEPSCAN-ELISA signal) [3] | Binding of CR57 (10 μg/ml) to looped/cyclic peptide (PEPSCAN-ELISA) [4] | Binding of CR57 to linear peptide (PEPSCAN-ELISA signal) [5] | Binding of CRJB (10 μg/ml) to looped/cyclic peptide (PEPSCAN-ELISA) [6] | Binding of CRJA (10 μg/ml) to looped/cyclic peptide (PEPSCAN-ELISA signal) [2] | Binding of CR57 (10 μg/ml) to looped/cyclic peptide (PEPSCAN-ELISA signal) [4] | Binding of CRJB (10 μg/ml) to looped/cyclic peptide (PEPSCAN-ELISA signal) [6] | Binding of human monoclonal antibody CRJA to linear peptide (PEPSCAN-ELISA signal) [1] | Binding of CRJA to looped/cyclic peptide (PEPSCAN-ELISA signal) [2] | Binding of human monoclonal antibody CRJB to linear peptide (PEPSCAN-ELISA signal) [3] | Binding of CR57 to looped/cyclic peptide (PEPSCAN-ELISA signal) [4] | Binding of human monoclonal antibody CR57 to linear peptide (PEPSCAN-ELISA signal) [5] | Binding of CRJB to looped/cyclic peptide (PEPSCAN-ELISA signal) [6] |
| --- | --- | --- | --- | --- | --- | --- | --- | --- | --- | --- | --- | --- | --- | --- | --- |
| GFGKAYTIFNKTLME | 98 | 86 | 123 | 94 | 78 | 83 |  |  |  |  |  |  |  |  |  |
| RGKRASKGSETCGFV | 87 | 102 | 104 | 101 | 75 | 68 |  |  |  |  |  |  |  |  |  |
| ESIMTTKSVSFRRLS | 61 | 49 | 111 | 80 | 62 | 92 |  |  |  |  |  |  |  |  |  |
| TCGFVDERGLYKSLK | 104 | 100 | 120 | 84 | 47 | 79 |  |  |  |  |  |  |  |  |  |
| REECLDALESIMTTK | 94 | 92 | 110 | 89 | 94 | 79 |  |  |  |  |  |  |  |  |  |
| VEELVRKREECLDAL | 84 | 69 | 111 | 55 | 58 | 27 |  |  |  |  |  |  |  |  |  |
| LDALESIMTTKSVSF | 92 | 90 | 116 | 108 | 97 | 106 |  |  |  |  |  |  |  |  |  |
| LCGVLGLRLMDGTWV | 111 | 106 | 138 | 128 | 83 | 104 |  |  |  |  |  |  |  |  |  |
| GVVTEAENYTNFVGY | 76 |  | 111 |  | 86 |  | 90 | 83 | 71 |  |  |  |  |  |  |
| FRPTPDACRAAYNWK | 104 |  | 112 |  | 43 |  | 125 | 90 | 88 |  |  |  |  |  |  |
| RTWNEILPSKGCLRV | 97 | 102 | 127 | 107 | 120 | 93 |  |  |  |  |  |  |  |  |  |
| FTNSRGKRASKGSET | 90 |  | 111 |  | 83 |  | 88 | 89 | 82 |  |  |  |  |  |  |
| HDFRSDEIEHLVVEE | 78 | 111 | 107 | 24 | 69 | 79 |  |  |  |  |  |  |  |  |  |
| VIPLVHPLADPSTVF | 92 | 84 | 141 | 77 | 69 | 92 |  |  |  |  |  |  |  |  |  |
| EVHLPDVHNQVSGVD |  |  |  |  |  |  |  |  |  | 104 | 103 | 150 | 125 | 91 | 107 |
| AAYNWKMAGDPRYEE | 78 |  | 106 |  | 68 |  | 78 | 104 | 90 |  |  |  |  |  |  |
| SVIPLVHPLADPSTV | 64 | 75 | 137 | 71 | 72 | 106 |  |  |  |  |  |  |  |  |  |
| GDEAEDFVEVHLPDV |  |  |  |  |  |  |  |  |  | 93 | 82 | 124 | 87 | 46 | 87 |
| RRLSHLRKLVPGFGK | 85 | 96 | 143 | 111 | 92 | 88 |  |  |  |  |  |  |  |  |  |
| QHMELLESSVIPLVH | 87 | 111 | 146 | 132 | 98 | 97 |  |  |  |  |  |  |  |  |  |
| DIHHLSCPNNLVVED | 61 |  | 96 |  | 38 |  | 62 | 52 | 48 |  |  |  |  |  |  |
| TLMEADAHYKSVRTW | 111 | 89 | 114 | 89 | 100 | 87 |  |  |  |  |  |  |  |  |  |
| FNGIILGPDGNVLIP | 99 | 106 | 139 | 94 | 61 | 88 |  |  |  |  |  |  |  |  |  |
| EAEDFVEVHLPDVHN |  |  |  |  |  |  |  |  |  | 97 | 105 | 117 | 98 | 76 | 93 |
